Values of other authors as cited in patent publication US20210259278A1, “CHEWING GUM CONTAINING VITAMIN C” (priority 2018, published 2021).

System: nausea in humans

For O=C1O[C@H]([C@@H](O)CO)C(O)=C1O [vitamin C, L-(+)-ascorbic acid], the treatment of nausea (administration of vitamin C, for example in connection with seasickness) is listed as “found to be effective” and the “prevention of the occurrence of nausea in all test subjects” value (vitamin C alone) is listed as “could not reliably prevent the occurrence of nausea in all test subjects”.
